Patent publication US10457655B2, “Compounds and compositions for inhibition of FASN” (FORMA Therapeutics, Inc., priority 2013, dated 2019)

Biological target: FASN enzyme (Homo sapiens, UniProt P49327)
Test: Enzymatic Assay for FASN Inhibitors
Assay type: biochemical
How it was run: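 40 nM FASN preincubated with compound 60 min at 25° C in HEPES pH 7.3 buffer with 0.04% Triton X-100. Then 20 μM acetyl-CoA, 60 μM malonyl-CoA and 100 μM NADPH added for 90 min, quenched with CPM thiol probe; fluorescence 360/530 nm, IC50 by four-parameter fit.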

Chain of FASN enzyme (P49327 whole entry): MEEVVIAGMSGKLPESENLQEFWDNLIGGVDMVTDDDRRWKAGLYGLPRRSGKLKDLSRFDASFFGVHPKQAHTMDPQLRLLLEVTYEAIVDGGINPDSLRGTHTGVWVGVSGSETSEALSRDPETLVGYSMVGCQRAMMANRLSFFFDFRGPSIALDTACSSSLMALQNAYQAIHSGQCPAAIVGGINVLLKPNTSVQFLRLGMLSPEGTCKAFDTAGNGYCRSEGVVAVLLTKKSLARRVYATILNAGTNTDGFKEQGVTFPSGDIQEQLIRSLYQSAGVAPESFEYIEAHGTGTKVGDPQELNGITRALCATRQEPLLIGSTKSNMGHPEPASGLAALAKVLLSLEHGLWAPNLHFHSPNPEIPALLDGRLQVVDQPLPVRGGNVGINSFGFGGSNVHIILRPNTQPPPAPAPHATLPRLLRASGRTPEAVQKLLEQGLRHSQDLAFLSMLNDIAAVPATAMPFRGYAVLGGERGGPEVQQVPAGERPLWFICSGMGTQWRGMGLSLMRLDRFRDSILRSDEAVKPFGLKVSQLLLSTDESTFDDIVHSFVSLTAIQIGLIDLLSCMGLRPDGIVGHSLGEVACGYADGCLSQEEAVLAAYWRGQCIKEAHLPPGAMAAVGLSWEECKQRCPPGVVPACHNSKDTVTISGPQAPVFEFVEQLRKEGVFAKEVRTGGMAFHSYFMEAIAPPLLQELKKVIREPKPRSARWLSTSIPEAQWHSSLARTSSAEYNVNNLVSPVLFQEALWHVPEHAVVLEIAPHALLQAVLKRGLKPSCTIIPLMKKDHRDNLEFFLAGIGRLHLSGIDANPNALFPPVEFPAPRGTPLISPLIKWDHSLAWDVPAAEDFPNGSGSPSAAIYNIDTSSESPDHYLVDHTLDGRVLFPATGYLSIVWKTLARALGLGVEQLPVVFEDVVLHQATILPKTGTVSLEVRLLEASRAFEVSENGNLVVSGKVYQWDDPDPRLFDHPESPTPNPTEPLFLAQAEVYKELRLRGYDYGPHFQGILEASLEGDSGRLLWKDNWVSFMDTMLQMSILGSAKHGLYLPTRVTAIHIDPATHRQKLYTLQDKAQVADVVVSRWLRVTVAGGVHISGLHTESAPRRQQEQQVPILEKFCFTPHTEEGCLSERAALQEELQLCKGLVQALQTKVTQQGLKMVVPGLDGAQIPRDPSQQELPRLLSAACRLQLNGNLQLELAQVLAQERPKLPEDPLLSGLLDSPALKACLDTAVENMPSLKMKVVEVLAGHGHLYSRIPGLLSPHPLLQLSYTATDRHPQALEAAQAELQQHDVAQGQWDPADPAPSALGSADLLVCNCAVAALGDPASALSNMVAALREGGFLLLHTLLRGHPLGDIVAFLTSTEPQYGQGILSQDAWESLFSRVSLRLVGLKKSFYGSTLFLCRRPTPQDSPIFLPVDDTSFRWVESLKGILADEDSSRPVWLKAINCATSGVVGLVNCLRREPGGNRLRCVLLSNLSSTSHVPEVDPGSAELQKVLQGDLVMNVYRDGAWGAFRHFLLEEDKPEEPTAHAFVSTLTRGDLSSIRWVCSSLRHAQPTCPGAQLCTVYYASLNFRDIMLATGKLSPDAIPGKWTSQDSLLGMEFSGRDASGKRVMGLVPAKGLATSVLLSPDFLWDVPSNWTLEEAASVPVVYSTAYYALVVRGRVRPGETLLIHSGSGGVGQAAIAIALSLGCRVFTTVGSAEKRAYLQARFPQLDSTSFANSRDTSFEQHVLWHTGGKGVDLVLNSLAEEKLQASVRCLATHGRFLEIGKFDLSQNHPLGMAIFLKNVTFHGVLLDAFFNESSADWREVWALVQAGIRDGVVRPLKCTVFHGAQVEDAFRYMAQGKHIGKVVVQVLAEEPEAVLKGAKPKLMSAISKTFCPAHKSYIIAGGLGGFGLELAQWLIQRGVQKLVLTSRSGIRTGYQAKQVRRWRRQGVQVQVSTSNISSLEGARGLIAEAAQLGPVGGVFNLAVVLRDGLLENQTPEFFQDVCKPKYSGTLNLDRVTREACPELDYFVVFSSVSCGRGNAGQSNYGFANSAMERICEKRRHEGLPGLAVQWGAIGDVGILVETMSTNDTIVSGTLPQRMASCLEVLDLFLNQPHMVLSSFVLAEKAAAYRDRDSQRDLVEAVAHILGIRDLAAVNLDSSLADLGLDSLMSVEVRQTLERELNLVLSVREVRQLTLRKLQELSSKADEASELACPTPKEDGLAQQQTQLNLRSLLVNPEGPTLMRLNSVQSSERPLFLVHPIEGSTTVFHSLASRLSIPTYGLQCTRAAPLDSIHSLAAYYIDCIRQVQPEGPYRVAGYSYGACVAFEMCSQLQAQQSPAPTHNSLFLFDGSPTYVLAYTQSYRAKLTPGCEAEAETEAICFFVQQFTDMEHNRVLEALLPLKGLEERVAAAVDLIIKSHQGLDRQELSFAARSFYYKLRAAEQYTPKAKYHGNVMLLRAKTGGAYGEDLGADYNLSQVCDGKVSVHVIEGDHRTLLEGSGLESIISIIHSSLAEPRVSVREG

IC50 | SMILES
< 0.5 µM | Cn1cnc2cc(-c3cc(F)c(C(=O)N4CCN(C(=O)C5(O)CC5)CC4)c(F)c3)ccc21 [1-{4-[2,6-difluoro-4-(1-methyl-1H-1,3-benzodiazol-5-yl)benzoyl]piperazine-1-carbonyl}cyclopropan-1-ol]
< 0.5 µM | Cn1ncc2ccc(-c3cc(F)c(C(=O)N4CCN(C(=O)C5(O)CC5)CC4)c(F)c3)cc21 [1-{4-[2,6-difluoro-4-(1-methyl-1H-indazol-6-yl)benzoyl]piperazine-1-carbonyl}cyclopropan-1-ol]
< 0.5 µM | Cn1cc2ccc(-c3cc(F)c(C(=O)N4CCN(C(=O)C5(N)CC5)CC4)c(F)c3)cc2n1 [1-{4-[2,6-difluoro-4-(2-methyl-2H-indazol-6-yl)benzoyl]piperazine-1-carbonyl}cyclopropan-1-amine]
< 0.5 µM | Cn1cc2ccc(-c3cc(F)c(C(=O)N4CCN(C(=O)C5(O)CC5)CC4)c(F)c3)cc2n1 [1-{4-[2,6-difluoro-4-(2-methyl-2H-indazol-6-yl)benzoyl]piperazine-1-carbonyl}cyclopropan-1-ol]
< 0.5 µM | Cn1ncc2ccc(-c3ccc(C(=O)N4CCN(C(=O)C5(O)CC5)CC4)c(Cl)c3)cc21 [1-{4-[2-chloro-4-(1-methyl-1H-indazol-6-yl)benzoyl]piperazine-1-carbonyl}cyclopropan-1-ol]
< 0.5 µM | Cn1cc2ccc(-c3ccc(C(=O)N4CCN(C(=O)C5(O)CC5)CC4)c(Cl)c3)cc2n1 [1-{4-[2-chloro-4-(2-methyl-2H-indazol-6-yl)benzoyl]piperazine-1-carbonyl}cyclopropan-1-ol]
< 0.5 µM | O=C(c1ccc(-c2cc(Cl)ccc2F)cc1Cl)N1CCN(C(=O)C2(O)CC2)CC1 [1-{4-[2-chloro-4-(5-chloro-2-fluorophenyl)benzoyl]piperazine-1-carbonyl}cyclopropan-1-ol]
< 0.5 µM | O=C(c1ccc(-c2nc3ccc(Cl)cc3o2)cc1Cl)N1CCN(C(=O)C2(O)CC2)CC1 [1-{4-[2-chloro-4-(6-chloro-1,3-benzoxazol-2-yl)benzoyl]piperazine-1-carbonyl}cyclopropan-1-ol]
< 0.5 µM | Cn1cnc2cc(-c3ccc(C(=O)N4CCN(C(=O)C5(N)CCC5)CC4)c(F)c3)ccc21 [1-{4-[2-fluoro-4-(1-methyl-1H-1,3-benzodiazol-5-yl)benzoyl]piperazine-1-carbonyl}cyclobutan-1-amine]
< 0.5 µM | Cn1cnc2cc(-c3ccc(C(=O)N4CCN(C(=O)C5(N)CC5)CC4)c(F)c3)ccc21 [1-{4-[2-fluoro-4-(1-methyl-1H-1,3-benzodiazol-5-yl)benzoyl]piperazine-1-carbonyl}cyclopropan-1-amine]
< 0.5 µM | Cn1cnc2cc(-c3ccc(C(=O)N4CCN(C(=O)C5(O)CC5)CC4)c(F)c3)ccc21 [1-{4-[2-fluoro-4-(1-methyl-1H-1,3-benzodiazol-5-yl)benzoyl]piperazine-1-carbonyl}cyclopropan-1-ol]
< 0.5 µM | Cn1ncc2ccc(-c3ccc(C(=O)N4CCN(C(=O)C5(N)CCC5)CC4)c(F)c3)cc21 [1-{4-[2-fluoro-4-(1-methyl-1H-indazol-6-yl)benzoyl]piperazine-1-carbonyl}cyclobutan-1-amine]
< 0.5 µM | Cn1ncc2ccc(-c3ccc(C(=O)N4CCN(C(=O)C5(N)CC5)CC4)c(F)c3)cc21 [1-{4-[2-fluoro-4-(1-methyl-1H-indazol-6-yl)benzoyl]piperazine-1-carbonyl}cyclopropan-1-amine]
< 0.5 µM | Cn1ncc2ccc(-c3ccc(C(=O)N4CCN(C(=O)C5(O)CC5)CC4)c(F)c3)cc21 [1-{4-[2-fluoro-4-(1-methyl-1H-indazol-6-yl)benzoyl]piperazine-1-carbonyl}cyclopropan-1-ol]
< 0.5 µM | Cc1cc2ccccc2n1-c1ccc(C(=O)N2CCN(C(=O)C3(N)CC3)CC2)c(F)c1 [1-{4-[2-fluoro-4-(2-methyl-1H-indol-1-yl)benzoyl]piperazine-1-carbonyl}cyclopropan-1-amine]
< 0.5 µM | Cc1cc2ccccc2n1-c1ccc(C(=O)N2CCN(C(=O)C3(O)CC3)CC2)c(F)c1 [1-{4-[2-fluoro-4-(2-methyl-1H-indol-1-yl)benzoyl]piperazine-1-carbonyl}cyclopropan-1-ol]
< 0.5 µM | Cn1cc2ccc(-c3ccc(C(=O)N4CCN(C(=O)C5(N)CCC5)CC4)c(F)c3)cc2n1 [1-{4-[2-fluoro-4-(2-methyl-2H-indazol-6-yl)benzoyl]piperazine-1-carbonyl}cyclobutan-1-amine]
< 0.5 µM | Cn1cc2ccc(-c3ccc(C(=O)N4CCN(C(=O)C5(N)CC5)CC4)c(F)c3)cc2n1 [1-{4-[2-fluoro-4-(2-methyl-2H-indazol-6-yl)benzoyl]piperazine-1-carbonyl}cyclopropan-1-amine]
< 0.5 µM | Cc1n[nH]c2c(-c3ccc(C(=O)N4CCN(C(=O)C5(N)CC5)CC4)c(F)c3)cccc12 [1-{4-[2-fluoro-4-(3-methyl-1H-indazol-7-yl)benzoyl]piperazine-1-carbonyl}cyclopropan-1-amine]
< 0.5 µM | Cc1n[nH]c2c(-c3ccc(C(=O)N4CCN(C(=O)C5(O)CC5)CC4)c(F)c3)cccc12 [1-{4-[2-fluoro-4-(3-methyl-1H-indazol-7-yl)benzoyl]piperazine-1-carbonyl}cyclopropan-1-ol]
< 0.5 µM | O=C(c1ccc(N2CCc3cccnc3C2)cc1F)N1CCN(C(=O)C2(O)CC2)CC1 [1-{4-[2-fluoro-4-(5,6,7,8-tetrahydro-1,7-naphthyridin-7-yl)benzoyl]piperazine-1-carbonyl}cyclopropan-1-ol]
< 0.5 µM | O=C(c1ccc(-c2nc3ccc(F)cc3o2)cc1F)N1CCN(C(=O)C2(O)CC2)CC1 [1-{4-[2-fluoro-4-(6-fluoro-1,3-benzoxazol-2-yl)benzoyl]piperazine-1-carbonyl}cyclopropan-1-ol]
< 0.5 µM | O=C(c1ccc(-c2n[nH]c3c(F)cccc23)cc1F)N1CCN(C(=O)C2(O)CC2)CC1 [1-{4-[2-fluoro-4-(7-fluoro-1H-indazol-3-yl)benzoyl]piperazine-1-carbonyl}cyclopropan-1-ol]
< 0.5 µM | Cc1nn(C)c2ccc(-c3ccc(C(=O)N4CCN(C(=O)C5(O)CC5)CC4)cc3Cl)cc12 [1-{4-[3-chloro-4-(1,3-dimethyl-1H-indazol-5-yl)benzoyl]piperazine-1-carbonyl}cyclopropan-1-ol]
< 0.5 µM | Cn1cnc2cc(-c3ccc(C(=O)N4CCN(C(=O)C5(O)CC5)CC4)cc3Cl)ccc21 [1-{4-[3-chloro-4-(1-methyl-1H-1,3-benzodiazol-5-yl)benzoyl]piperazine-1-carbonyl}cyclopropan-1-ol]
< 0.5 µM | Cn1ncc2ccc(-c3ccc(C(=O)N4CCN(C(=O)C5(O)CC5)CC4)cc3Cl)cc21 [1-{4-[3-chloro-4-(1-methyl-1H-indazol-6-yl)benzoyl]piperazine-1-carbonyl}cyclopropan-1-ol]
< 0.5 µM | Cn1cc2ccc(-c3ccc(C(=O)N4CCN(C(=O)C5(O)CC5)CC4)cc3Cl)cc2n1 [1-{4-[3-chloro-4-(2-methyl-2H-indazol-6-yl)benzoyl]piperazine-1-carbonyl}cyclopropan-1-ol]
< 0.5 µM | O=C(c1ccc(-c2ccc(Cl)cc2F)c(Cl)c1)N1CCN(C(=O)C2(O)CC2)CC1 [1-{4-[3-chloro-4-(4-chloro-2-fluorophenyl)benzoyl]piperazine-1-carbonyl}cyclopropan-1-ol]
< 0.5 µM | O=C(c1ccc(-c2cc(Cl)ccc2F)c(Cl)c1)N1CCN(C(=O)C2(O)CC2)CC1 [1-{4-[3-chloro-4-(5-chloro-2-fluorophenyl)benzoyl]piperazine-1-carbonyl}cyclopropan-1-ol]
